Assay results taken from ChEMBL document CHEMBL1201862, “PubChem BioAssay data set” (2004).
Where a name gives a salt, the structure may show the parent alone. Active and inactive are the calls of the source.

Legend:
[1] = cytotoxicity in KRAS-transformed pancreatic duct cells, primary screen, cell-based, fluorescence, HTS (AID 431); format: functional; settings: Homo sapiens;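 note: cell line used: HPDE-C7K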
[2] = growth suppression of PTEN-null colon cells, dose response, cell-based, HCT116 PTEN knockout (AID 1047); format: functional;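 note: HCT116 colon tumor cells with PTEN knocked out; cells exposed to compound for 60 hours before readout; potency for loss of cell viability measured by luminescence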
Fibrinogen beta chain [3] = target: T1, Fibrinogen beta chain (Homo sapiens, UniProt P02675); assay: Fluorescence polarization-based biochemical high throughput dose response assay to identify inhibitors that disrupt the binding of a cyclic peptide (Tn7) to the fibrin proteolytic product D-Dimer and fragment E complex [DD(E )].
T1 sequence (P02675 whole entry, the tested form may be a part): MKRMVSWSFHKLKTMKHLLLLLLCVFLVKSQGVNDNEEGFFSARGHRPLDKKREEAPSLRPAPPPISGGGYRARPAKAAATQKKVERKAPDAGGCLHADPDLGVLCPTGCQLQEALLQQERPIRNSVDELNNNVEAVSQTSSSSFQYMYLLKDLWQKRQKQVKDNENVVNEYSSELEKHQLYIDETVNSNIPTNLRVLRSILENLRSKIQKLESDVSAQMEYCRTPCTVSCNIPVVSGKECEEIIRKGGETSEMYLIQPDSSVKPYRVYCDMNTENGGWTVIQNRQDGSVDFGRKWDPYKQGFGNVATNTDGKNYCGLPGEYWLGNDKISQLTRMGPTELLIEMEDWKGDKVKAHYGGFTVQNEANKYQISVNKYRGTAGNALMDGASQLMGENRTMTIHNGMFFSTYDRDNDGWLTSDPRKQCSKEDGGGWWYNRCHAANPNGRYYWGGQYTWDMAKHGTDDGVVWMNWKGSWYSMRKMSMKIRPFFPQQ

[4] = cytotoxicity in HPDE-C7 cells, cell-based, fluorescence, HTS (AID 430); format: functional; settings: Homo sapiens
Nonstructural protein 1 = Nonstructural protein 1 (Influenza A virus, UniProt Q194T2); format: functional, Influenza A virus (A/California/07/2009(H1N1))
Nonstructural protein 1, sequence (Q194T2 whole entry): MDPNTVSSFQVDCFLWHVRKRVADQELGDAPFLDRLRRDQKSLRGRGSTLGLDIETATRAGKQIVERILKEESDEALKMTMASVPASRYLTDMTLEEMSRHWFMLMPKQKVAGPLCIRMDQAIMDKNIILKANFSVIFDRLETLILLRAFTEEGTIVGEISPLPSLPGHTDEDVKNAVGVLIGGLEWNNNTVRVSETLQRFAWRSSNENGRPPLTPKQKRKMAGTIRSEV

[5] = growth suppression of beta-catenin-knockout colon cells, dose response, cell-based, HCT116, human colon tumor (AID 1045); format: functional;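 note: HCT116 colon tumor cells with beta catenin knocked out; cells exposed to compound for 60 hours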
[6] = THP-1 cell cytotoxicity, dose response, cytotoxicity control for non-replicating M. tuberculosis project (AID 489025); format: functional
[7] = target: T2, Sentrin-specific protease 8 (Homo sapiens, UniProt Q96LD8); format: functional
T2 sequence (Q96LD8 whole entry): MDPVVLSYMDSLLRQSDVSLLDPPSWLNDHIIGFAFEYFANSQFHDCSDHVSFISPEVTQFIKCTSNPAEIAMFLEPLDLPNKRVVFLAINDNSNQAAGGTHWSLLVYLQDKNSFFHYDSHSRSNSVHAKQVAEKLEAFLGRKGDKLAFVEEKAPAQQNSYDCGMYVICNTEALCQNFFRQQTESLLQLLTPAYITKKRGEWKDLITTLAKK

Fibrinogen beta chain [8] = target: T1, Fibrinogen beta chain; assay: Fluorescence polarization-based biochemical high throughput dose response assay to identify inhibitors that disrupt the binding of a cyclic peptide (Tn6) to the fibrin proteolytic product D-Dimer and fragment E complex [DD(E )].
[9] = Luminescence Cell-Based Dose Confirmation HTS to Identify Activators of 5'UTR Stem-Loop Driven Alpha-Synuclein mRNA Translation in H4 Neuroglioblastoma Cells. [Related pubchem assays: 1829 (Project Summary), 1814 (Primary HTS)]; format: functional
[10] = Vero E6 cell cytotoxicity, dose response, cytotoxicity control for non-replicating M. tuberculosis project, secondary assay (AID 492998); format: functional, VeroE6; settings: Vero C1008
H4 = assay: Luminescence Cell-Based Dose Response HTS to Identify Activators of 5'UTR Stem-Loop Driven Prion Protein mRNA Translation in H4 Neuroglioblastoma Cells. [Related pubchem assays: 1829 (Project Summary), 1814 (Primary HTS)]; format: functional; settings: Homo sapiens
cells [11] = format: functional
[12] = target: T2, Sentrin-specific protease 8; format: functional; remark: listed apart in the source
[13] = target: NAD-dependent protein deacylase sirtuin-5, mitochondrial (Homo sapiens, UniProt Q9NXA8); assay: SIRT5 desuccinylase inhibitors, dose response, biochemical, fluorescence imaging, cherry-pick, set 5 (AID 720591);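 note: desuccinylation of succinyl peptide AMC substrate read as fluorescence after trypsin release; potency of inhibitors that lower fluorescence and may act on trypsin instead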
NAD-dependent protein deacylase sirtuin-5, mitochondrial, sequence (Q9NXA8 whole entry): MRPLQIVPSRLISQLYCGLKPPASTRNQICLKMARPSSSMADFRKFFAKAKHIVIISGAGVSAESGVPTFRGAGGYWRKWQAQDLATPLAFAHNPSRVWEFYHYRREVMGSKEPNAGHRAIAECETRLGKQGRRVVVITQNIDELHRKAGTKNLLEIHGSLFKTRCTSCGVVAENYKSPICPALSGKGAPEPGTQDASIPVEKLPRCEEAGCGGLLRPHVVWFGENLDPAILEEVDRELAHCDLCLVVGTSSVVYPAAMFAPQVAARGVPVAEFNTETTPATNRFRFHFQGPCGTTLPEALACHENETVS

[14] = cytotoxicity in COV434 cells, dose response, cytotoxicity control for PAX8 inhibitor project, cell-based, plate reader, dry powder, SA7 (AID 743145); format: functional
[15] = cytotoxicity in OVCAR4 cells, dose response, cytotoxicity control for PAX8 inhibitor project, cell-based, plate reader, dry powder, SA11 (AID 743150); format: functional; settings: OVCAR-4
[16] = PAX5 activity inhibitors, dose response, selectivity assay for PAX8 inhibitor project, cell-based, plate reader, dry powder samples (AID 743047); format: functional;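 note: HEK293 cells carrying a Pax5 driven CD19 promoter luciferase reporter; potency of inhibitors that lower reporter luminescence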
Paired box protein Pax-8 = Paired box protein Pax-8 (Homo sapiens, UniProt Q06710); assay: inhibitors of PAX8-driven TPO luciferase reporter, dose response, RMG-I cells, cherry-pick (AID 687027); format: functional, cell-based;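 note: luciferase reporter driven by Pax8 target thyroperoxidase promoter measured by SteadyGlo luminescence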
Paired box protein Pax-8, sequence (Q06710 whole entry): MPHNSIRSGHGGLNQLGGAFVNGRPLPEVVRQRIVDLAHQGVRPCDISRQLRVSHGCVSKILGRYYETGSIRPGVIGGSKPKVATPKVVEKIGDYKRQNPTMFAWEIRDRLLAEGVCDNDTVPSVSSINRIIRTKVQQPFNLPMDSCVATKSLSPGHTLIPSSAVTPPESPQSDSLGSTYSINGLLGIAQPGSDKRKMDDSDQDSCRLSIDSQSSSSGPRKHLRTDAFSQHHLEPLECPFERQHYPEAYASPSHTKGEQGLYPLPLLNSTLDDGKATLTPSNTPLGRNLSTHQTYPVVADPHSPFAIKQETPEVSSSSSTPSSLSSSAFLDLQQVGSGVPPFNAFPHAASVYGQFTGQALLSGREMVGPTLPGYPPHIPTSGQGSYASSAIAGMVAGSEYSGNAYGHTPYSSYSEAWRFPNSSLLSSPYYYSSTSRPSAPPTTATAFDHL

[17] = cytotoxicity dependent on PAX8, dose response, cell-based, plate reader, dry powder (AID 743049); format: functional
[18] = PAX2 cell-based inhibition, dose response, selectivity assay for PAX8 inhibitor project, plate reader, dry powder samples (AID 743048); format: functional;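 note: HEK293 cells carrying a WT1 promoter luciferase reporter driven by expressed Pax2; potency is for inhibition of Pax2 driven reporter signal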
[19] = cytotoxicity in OV-90 ovarian cancer cells, dose response, PAX8 inhibitor project, cell-based, plate reader, dry powder, SA8 (AID 743149); format: functional
[20] = NIH:OVCAR-3 ovarian cancer cell cytotoxicity, dose response, PAX8 inhibitor project, plate reader, dry powder samples (AID 743044); format: functional, cell-based
[21] = cytotoxicity in COV362 ovarian cancer cells, dose response, cytotoxicity control for PAX8 inhibitor project, cell-based, plate reader, dry powder, SA12 (AID 743144); format: functional
[22] = target: G-protein coupled receptor 183 (Homo sapiens, UniProt P32249); assay: SAR confirmation of small molecule antagonists of the EBI2 receptor via a luminescent beta-arrestin assa.; format: functional
G-protein coupled receptor 183, sequence (P32249 whole entry): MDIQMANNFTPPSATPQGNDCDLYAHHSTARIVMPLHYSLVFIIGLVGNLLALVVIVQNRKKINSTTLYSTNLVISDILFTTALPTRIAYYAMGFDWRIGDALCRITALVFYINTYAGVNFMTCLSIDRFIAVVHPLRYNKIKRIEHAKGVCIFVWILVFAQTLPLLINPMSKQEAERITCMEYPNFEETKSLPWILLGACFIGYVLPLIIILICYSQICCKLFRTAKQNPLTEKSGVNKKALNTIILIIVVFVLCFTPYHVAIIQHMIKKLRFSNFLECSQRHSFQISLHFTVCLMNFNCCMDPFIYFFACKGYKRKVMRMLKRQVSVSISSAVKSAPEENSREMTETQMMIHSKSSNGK

[23] = Concentration-dependent survival of SW480 colon cancer line, luminescence detection with CellTiter-Glo, half-maximal inhibitory concentration (AID 1117338); format: functional
[24] = RKO cell viability reduction, dose response, CellTiter-Glo luminescence (AID 1117322); format: functional
[25] = HeLa 4N DNA content increase, dose response, cell-based, IC50 (AID 1117351); format: functional
[26] = HeLa 2N DNA content increase, dose response, cell-based, IC50 (AID 1117349); format: functional
[27] = HCT116 cell viability decrease, GSK3B pretreatment – CellTiter-Glo, IC50, dose response (AID 1117339); format: functional; settings: HCT-116
cells [28] = format: functional, cell-based; settings: INS-1E
[29] = Dose-response inhibition of insulin secretion in a rat insulinoma line at 5 mM glucose (AID 1117331); format: functional, cell-based; settings: INS-1E
[30] = SNU-C1 cell viability reduction, dose response, CellTiter-Glo luminescence (AID 1117323); format: functional, cell-based

Q: Which EC50 [1] does the source give for N#CC(C#N)=c1ccc2c(c1)NC1(CCCCC1)N=2 here?
A: The EC50 was 9.91 µM (active).

Q: What about the EC50 [2] of the same compound?
A: The EC50 was 1.37 µM (active).

Q: What about the IC50 (Fibrinogen beta chain [3]) of the same compound?
A: Its IC50 is > 83.3 µM (inactive).

Q: And the EC50 [4]?
A: Its EC50 is 6.5 µM (active).

Q: And the IC50 (Nonstructural protein 1)?
A: The IC50 was 15.6 µM (active).

Q: What about the EC50 [5] of the same compound?
A: The EC50 was 1.23 µM (active).

Q: And the CC50 [6]?
A: Its CC50 is 6.67 µM (active).

Q: What about the IC50 [7] of the same compound?
A: Its IC50 is 3.45 µM (active).

Q: What about the IC50 (Fibrinogen beta chain [8]) of the same compound?
A: The IC50 was 11.3 µM (inactive).

Q: What about the EC50 [9] of the same compound?
A: The EC50 was 1.55 µM (active).

Q: What about the CC50 [10] of the same compound?
A: Its CC50 is 15.4 µM (active).

Q: And the EC50 (H4)?
A: The EC50 was 5.95 µM (active).

Q: And the IC50 (cells [11])?
A: The IC50 was 10.7 µM (active).

Q: And the IC50 [12]?
A: The IC50 was > 100 µM (inactive).

Q: With C=CCN(c1ccccc1)S(=O)(=O)c1cccc(C(=O)Nc2ccncc2)c1 as the compound, how does the AC50 [13] read?
A: The AC50 was > 30 µM (inactive).

Q: What does the source list for COc1ccc(NC(=O)Nc2ccc3c(c2)C(=O)N([C@H](C)CO)C[C@H](C)[C@H](CN(C)Cc2ccc(C(F)(F)F)cc2)OCCCC[C@H](C)O3)cc1?
A: AC50 [14]: 27.7 µM (active); AC50 [15]: 20.4 µM (active); AC50 [16]: 22.9 µM (active); AC50 (Paired box protein Pax-8): 9.32 µM (active); AC50 [17]: 22.4 µM (active); AC50 [18]: 18.4 µM (active); AC50 [19]: 23.6 µM (active); AC50 [20]: 24 µM (active); AC50 [21]: 26 µM (active)

Q: Which IC50 [22] does the source give for O=C(/C=C/c1ccc(F)cc1)N1CCN(S(=O)(=O)CCc2ccccc2)CC1 here?
A: Its IC50 is 0.00327 µM (active).

Q: Which results are given for CCN(CC)CCCC(C)Nc1c2ccc(Cl)cc2nc2ccc(OC)cc12 (stereo not drawn) [QUINACRINE HYDROCHLORIDE]?
A: IC50 [23]: 3.6 µM (active); IC50 [24]: 3.42 µM (active); IC50 [25]: > 10 µM (inactive); IC50 [26]: 2.16 µM (active); IC50 [27]: 4.48 µM (active); IC50 (cells [28]): > 33.3 µM (inactive); IC50 [29]: 4.07 µM (active); IC50 [30]: 3.84 µM (active)
